test system: apyrase; assay: Screen for apyrase inhibitors (Method 1, in vitro phosphate-release absorbance assay); format: biochemical; details: inhibitor conc at 1 mM stock, 1 hr room temperature, absorbance 630 nm; rounded average of two assay results
Summary of the method: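 Phosphate-release colorimetric assay (Windsor method) in 60 mM Hepes, 3 mM MgCl2, 3 mM CaCl2, 3 mM ATP, pH 6.5, with compound or DMSO control added. Released phosphate developed with ammonium molybdate and ascorbic acid/TCA, then stopped with citrate/acetic acid.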

| Structure (SMILES) | % Inhibition of Apyrase |
| --- | --- |
| CC1Cc2ccccc2N1S(=O)(=O)c1cccc(C(=O)Nc2cccc(Oc3ccccc3)c2)c1 (stereo not drawn) [I-487, 3-((2-methylindolin-1-yl)sulfonyl)-N-(3-phenoxyphenyl)benzamide] | 58% |
| Cc1cc(F)ccc1NC(=O)c1ccc(S(=O)(=O)Nc2cccc(C(F)(F)F)c2)cc1 [I-183, N-(4-fluoro-2-methylphenyl)-4-(N-(3-(trifluoromethyl)phenyl)sulfamoyl)benzamide] | 67% |
| Cc1ccc(C(=O)Nc2cccc(NS(=O)(=O)c3ccccc3)c2)cc1[N+](=O)[O-] [I-347, 4-methyl-3-nitro-N-(3-(phenylsulfonamido)phenyl)benzamide] | 52% |
| COc1ccccc1NS(=O)(=O)c1ccc(NC(=O)c2ccc(C#N)cc2)cc1 [I-999, 4-cyano-N-(4-(N-(2-methoxyphenyl)sulfamoyl)phenyl)benzamide] | 29% |
| O=C(Nc1ccc2c(c1)CCC2)c1cccc(S(=O)(=O)N2CCc3ccccc32)c1 [I-539, N-(2,3-dihydro-1H-inden-5-yl)-3-(indolin-1-ylsulfonyl)benzamide] | 54% |
| O=C(Nc1ccc2c(c1)OCCCO2)c1cccc(S(=O)(=O)Nc2ccc3c(c2)OCO3)c1 [I-258, 3-(N-(benzo[d][1,3]dioxol-5-yl)sulfamoyl)-N-(3,4-dihydro-2H-benzo[b][1,4]dioxepin-7-yl)benzamide] | 61% |
| CN(c1ccccc1)S(=O)(=O)c1cc(C(=O)N2CCc3cc([N+](=O)[O-])ccc32)ccc1Cl [I-477, 2-chloro-N-methyl-5-(5-nitroindoline-1-carbonyl)-N-phenylbenzenesulfonamide] | 58% |
| COc1ccc(S(=O)(=O)N2CCCCC2)cc1NC(=O)c1cccc(S(=O)(=O)Nc2ccccc2OC)c1 [I-578, N-(2-methoxy-5-(piperidin-1-ylsulfonyl)phenyl)-3-(N-(2-methoxyphenyl)sulfamoyl)benzamide] | 48% |
| CC1Cc2ccccc2N1C(=O)c1cccc(S(=O)(=O)Nc2ccccc2F)c1 (stereo not drawn) [I-533, N-(2-fluorophenyl)-3-(2-methylindoline-1-carbonyl)benzenesulfonamide] | 54% |
| COc1ccccc1NC(=O)c1ccc(NS(=O)(=O)c2cccc(Cl)c2Cl)cc1 [I-943, 4-((2,3-dichlorophenyl)sulfonamido)-N-(2-methoxyphenyl)benzamide] | 48% |
| O=C(Nc1cccc([N+](=O)[O-])c1)c1cccc(S(=O)(=O)Nc2ccc(Cl)cc2)c1 [I-21, 3-(N-(4-chlorophenyl)sulfamoyl)-N-(3-nitrophenyl)benzamide] | 45% |
| CN(c1ccccc1)S(=O)(=O)c1cccc(NC(=O)c2ccc(=O)[nH]n2)c1 [I-755, N-(3-(N-methyl-N-phenylsulfamoyl)phenyl)-6-oxo-1,6-dihydropyridazine-3-carboxamide] | 33% |
| N#Cc1cccc(NC(=O)c2cccc(S(=O)(=O)Nc3cc(C(F)(F)F)ccc3Cl)c2)c1 [I-532, 3-(N-(2-chloro-5-(trifluoromethyl)phenyl)sulfamoyl)-N-(3-cyanophenyl)benzamide] | 55% |
| O=C(Nc1cccc(S(=O)(=O)N2CCCCC2)c1)c1cccc(S(=O)(=O)N2CCc3ccccc32)c1 [I-446, 3-(indolin-1-ylsulfonyl)-N-(3-(piperidin-1-ylsulfonyl)phenyl)benzamide] | 61% |
| COc1ccc(S(=O)(=O)N2CCc3ccccc32)cc1C(=O)Nc1ccccc1F [I-538, N-(2-fluorophenyl)-5-(indolin-1-ylsulfonyl)-2-methoxybenzamide] | 54% |
| COc1ccc(N(C)S(=O)(=O)c2cccc(C(=O)Nc3ccc4c(c3)OCO4)c2)cc1 [I-479, N-(benzo[d][1,3]dioxol-5-yl)-3-(N-(4-methoxyphenyl)-N-methylsulfamoyl)benzamide] | 58% |
| CN(c1ccccc1)S(=O)(=O)c1ccccc1C(=O)Nc1ccc2c(c1)OCO2 [I-351, N-(benzo[d][1,3]dioxol-5-yl)-2-(N-methyl-N-phenylsulfamoyl)benzamide] | 53% |
| Cc1c(NC(=O)c2ccc(Cl)c(S(=O)(=O)Nc3ccccc3)c2)cccc1[N+](=O)[O-] [I-39, 4-chloro-N-(2-methyl-3-nitrophenyl)-3-(N-phenylsulfamoyl)benzamide] | 14% |
| COC(=O)c1c(C)[nH]c(C(=O)Nc2cccc(S(=O)(=O)Nc3cccc(C(F)(F)F)c3)c2)c1C [I-721, methyl 2,4-dimethyl-5-((3-(N-(3-(trifluoromethyl)phenyl)sulfamoyl)phenyl)carbamoyl)-1H-pyrrole-3-carboxylate] | 57% |
| COc1ccc(NS(=O)(=O)c2ccc(NC(=O)c3ccccc3OC(F)F)cc2)cc1OC [I-996, 2-(difluoromethoxy)-N-(4-(N-(3,4-dimethoxyphenyl)sulfamoyl)phenyl)benzamide] | 46% |

| Structure (SMILES) | % Inhibition of Apyrase |
| --- | --- |
| COc1ccc(S(=O)(=O)N2CCc3ccccc32)cc1C(=O)Nc1ccc(OC(F)F)c(Cl)c1 [I-440, N-(3-chloro-4-(difluoromethoxy)phenyl)-5-(indolin-1-ylsulfonyl)-2-methoxybenzamide] | 62% |
| Cc1ccc(NC(=O)c2cccc(S(=O)(=O)Nc3ccc4c(c3)OCO4)c2)cc1C [I-230, 3-(N-(benzo[d][1,3]dioxol-5-yl)sulfamoyl)-N-(3,4-dimethylphenyl)benzamide] | 66% |
| O=C(Nc1ccc(N2CCOCC2)cc1)c1cccc(S(=O)(=O)Nc2ccc(Br)cc2)c1 [I-255, 3-(N-(4-bromophenyl)sulfamoyl)-N-(4-morpholinophenyl)benzamide] | 61% |
| O=C(Nc1ccccc1F)c1cccc(S(=O)(=O)Nc2ccc3c(c2)OCO3)c1 [I-249, 3-(N-(benzo[d][1,3]dioxol-5-yl)sulfamoyl)-N-(2-fluorophenyl)benzamide] | 63% |
| COc1ccccc1NC(=O)c1ccc(NS(=O)(=O)c2cccc(C#N)c2)cc1 [I-944, 4-((3-cyanophenyl)sulfonamido)-N-(2-methoxyphenyl)benzamide] | 47% |
| Cc1cc(F)ccc1S(=O)(=O)Nc1ccc(C(=O)Nc2cccc(C#N)c2)cc1 [I-959, N-(3-cyanophenyl)-4-((4-fluoro-2-methylphenyl)sulfonamido)benzamide] | 17% |
| Cc1nc2cc(NC(=O)c3cccc(S(=O)(=O)N4c5ccccc5CC4C)c3)ccc2o1 (stereo not drawn) [I-583, N-(2-methylbenzo[d]oxazol-5-yl)-3-((2-methylindolin-1-yl)sulfonyl)benzamide] | 47% |
| CN(c1ccccc1)S(=O)(=O)c1cccc(NC(=O)c2cc(C3CC3)on2)c1 [I-773, 5-cyclopropyl-N-(3-(N-methyl-N-phenylsulfamoyl)phenyl)isoxazole-3-carboxamide] | 3% |
| O=C(c1cccc(S(=O)(=O)N2CCCc3ccccc32)c1)N1CCc2ccccc21 [I-485, (3-((3,4-dihydroquinolin-1(2H)-yl)sulfonyl)phenyl)(indolin-1-yl)methanone] | 58% |
| Cc1ccc(C(=O)Nc2cccc([N+](=O)[O-])c2)cc1S(=O)(=O)Nc1ccc(C(=O)O)cc1 [I-45, 4-((2-methyl-5-((3-nitrophenyl)carbamoyl)phenyl)sulfonamido) benzoic acid] | 13% |
| COc1ccc([N+](=O)[O-])cc1NC(=O)c1cccc(S(=O)(=O)Nc2ccc(Cl)cc2)c1 [I-254, 3-(N-(4-chlorophenyl)sulfamoyl)-N-(2-methoxy-5-nitrophenyl)benzamide] | 61% |
| Cc1ccc(NC(=O)c2ccc(S(=O)(=O)Nc3cccc(C(F)(F)F)c3)cc2)c(C)c1 [I-225, N-(2,4-dimethylphenyl)-4-(N-(3-(trifluoromethyl)phenyl)sulfamoyl)benzamide] | 72% |
| O=C(Nc1cccc(N2CCCC2=O)c1)c1ccc(NS(=O)(=O)c2ccccc2)cc1 [I-950, N-(3-(2-oxopyrrolidin-1-yl)phenyl)-4-(phenylsulfonamido)benzamide] | 39% |
| Cc1ccc(NS(=O)(=O)c2ccc(C(=O)Nc3cccc(S(=O)(=O)N4CCCC4)c3)cc2)cc1 [I-204, N-(3-(pyrrolidin-1-ylsulfonyl)phenyl)-4-(N-(p-tolyl)sulfamoyl)benzamide] | 69% |
| COc1cc(Cl)c(C)cc1NC(=O)c1ccccc1S(=O)(=O)N(C)c1ccccc1 [I-350, N-(4-chloro-2-methoxy-5-methylphenyl)-2-(N-methyl-N-phenylsulfamoyl)benzamide] | 66% |
| Cc1occc1C(=O)Nc1cccc(S(=O)(=O)Nc2cccc(C(F)(F)F)c2)c1 [I-747, 2-methyl-N-(3-(N-(3-(trifluoromethyl)phenyl)sulfamoyl)phenyl) furan-3-carboxamide] | 44% |
| O=C(Nc1cccnc1)c1cccc(S(=O)(=O)Nc2cccc(C(F)(F)F)c2)c1 [I-30, N-(pyridin-3-yl)-3-(N-(3-(trifluoromethyl)phenyl)sulfamoyl)benzamide] | 21% |
| Cc1cccc2c1N(C(=O)c1cccc(S(=O)(=O)N3CCc4ccccc43)c1)CCC2 [I-510, (3-(indolin-1-ylsulfonyl)phenyl)(8-methyl-3,4-dihydroquinolin-1(2H)-yl)methanone] | 56% |
| Cc1cc(C)cc(NC(=O)c2ccc(NS(=O)(=O)c3ccc(F)c(Cl)c3)cc2)c1 [I-931, 4-((3-chloro-4-fluorophenyl)sulfonamido)-N-(3,5-dimethylphenyl)benzamide] | 55% |

Source: patent US12685312B2, “Sulfonamide apyrase inhibitors” (Texas Crop Science, Inc., priority 2022, dated 2026)
